Assay results taken from patent US9676715B2, “Bis-indolic derivatives, a process for preparing the same and their uses as a drug” (UNIVERSITE JOSEPH FOURIER, priority 2011, dated 2017).

Tests used:
[1] = tested on: S. aureus ATCC 25923; experiment: MIC, microdilution method (9.1); type: cell-based, Staphylococcus aureus; conditions: Staphylococcus aureus, ATCC25923, read after 18 h, read-out: MIC
Summary of the method: (§1)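 Broth microdilution per CLSI M07-A8 in Mueller Hinton broth, final inoculum 5×10^5 CFU/ml. Indolic compounds tested as two-fold serial dilutions, 0.50-128 mg/L final. Plates incubated at 37° C. in ambient air; fastidious species received 10% sheep blood and 5% CO2.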

[2] = tested on: S. aureus ATCC 29213; experiment: MIC, microdilution method (9.1); type: cell-based, Staphylococcus aureus; conditions: Staphylococcus aureus, ATCC29213, read after 18 h, read-out: MIC
Summary of the method: as §1

[3] = tested on: S. epidermidis ATCC 12228; experiment: MIC, microdilution method (9.1); type: cell-based, Staphylococcus epidermidis; conditions: Staphylococcus epidermidis, ATCC12228, read after 18 h, read-out: MIC
Summary of the method: as §1

[4] = tested on: S. pneumoniae ATCC 6303; experiment: MIC, microdilution method (9.1); type: cell-based, Streptococcus pneumoniae; conditions: Streptococcus pneumoniae, ATCC6303, 10% sheep blood, 5% CO2, 18 h, read-out: MIC
Summary of the method: as §1

[5] = tested on: S. agalactiae (group B) ATCC 12400; experiment: MIC, microdilution method (9.1); type: cell-based, Streptococcus agalactiae; conditions: Streptococcus agalactiae, ATCC12400, 18 h, read-out: MIC
Summary of the method: as §1

[6] = tested on: S. pyogenes (group A) CIP 104226; experiment: MIC, microdilution method (9.1); type: cell-based, Streptococcus pyogenes; conditions: Streptococcus pyogenes, CIP104226, 18 h, read-out: MIC
Summary of the method: as §1

[7] = tested on: S. mitis CIP 103335; experiment: MIC, microdilution method (9.1); type: cell-based, Streptococcus mitis; conditions: Streptococcus mitis, CIP103335, 18 h, read-out: MIC
Summary of the method: as §1

[8] = tested on: E. faecium CIP 54.32; experiment: MIC, microdilution method (9.1); type: cell-based, Enterococcus faecium; conditions: Enterococcus faecium, CIP54, 18 h, read-out: MIC
Summary of the method: as §1

[9] = tested on: E. faecalis ATCC 29212; experiment: MIC, microdilution method (9.1); type: cell-based, Enterococcus faecalis; conditions: Enterococcus faecalis, ATCC29212, 18 h, read-out: MIC
Summary of the method: as §1

[10] = tested on: Acinetobacter baumanii ATCC 19606; experiment: MIC, microdilution method (9.1); type: cell-based; conditions: Acinetobacter baumannii, ATCC19606, 18 h, read-out: MIC
Summary of the method: as §1

[11] = tested on: Bacillus subtilis CIP 5262; experiment: MIC, microdilution method (9.1); type: cell-based; conditions: CIP5262, 18 h, read-out: MIC
Summary of the method: as §1

[12] = tested on: Enterobacter cloacae ATCC13047; experiment: MIC, microdilution method (9.1); type: cell-based; conditions: 18 h
Summary of the method: as §1

[13] = tested on: Escherichia coli ATCC 25922; experiment: MIC, microdilution method (9.1); type: cell-based; conditions: ATCC25922, 18 h
Summary of the method: as §1

[14] = tested on: Haemophilus influenzae ATCC 49766; experiment: MIC, microdilution method (9.1); type: cell-based; conditions: ATCC49766; Haemophilus influenzae ATCC 49766; 10% sheep blood, 5% CO2; 18 h; read-out: MIC
Summary of the method: as §1

[15] = tested on: Klebsiella pneumoniae API ATCC 35657; experiment: MIC, microdilution method (9.1); type: cell-based; conditions: ATCC35657, 18 h, read-out: MIC
Summary of the method: as §1

[16] = tested on: Listeria innocua CIP 80.11; experiment: MIC, microdilution method (9.1); type: cell-based; conditions: CIP80, 18 h, read-out: MIC
Summary of the method: as §1

[17] = tested on: Pseudomonas aeruginosa CIP 5933; experiment: MIC, microdilution method (9.1); type: cell-based; conditions: CIP5933, 18 h, read-out: MIC
Summary of the method: as §1

[18] = tested on: S. pneumoniae ATCC 49619; experiment: MIC, microdilution method (9.1); type: cell-based; conditions: Streptococcus pneumoniae, ATCC49619, 10% sheep blood, 5% CO2, 18 h
Summary of the method: as §1

[19] = tested on: Serratia marcescens CIP 103551; experiment: MIC, microdilution method (9.1); type: cell-based; conditions: CIP103551, 18 h
Summary of the method: as §1

[20] = tested on: Staphylococcus aureus 1199B (overexpression of the NorA efflux pump); experiment: Efflux pump inhibition assay with sub-inhibitory ciprofloxacin; type: cell-based; conditions: S. aureus 1199B
Protocol: (§2) The efflux pump inhibition potential of the bis-indolic derivatives was tested using two steps.
(§3) The following experimental protocol was used: indolic derivatives (initially solubilised in DMSO at 10 mg/mL) were dispensed in a 96-wells microplate by two fold serial dilutions in Muller-Hinton medium (MH, Bio Rad) using a Biomek 2000 (Beckman) handling robot. 100 μL of the bacterial inoculum (an overnight culture at 37° C. in 5 mL MH diluted 100-fold) was then added in each well. The total volume was 200 μL in each well and the final bacteria concentration 10^6 CFU/mL (CFU: colony forming unit). The highest final indolic derivative concentration was 128 mg/L. Growth was assayed with a microplate reader by monitoring absorption at 620 nm after 1, 2, 5, 7 and 24 h incubation at 37° C. In addition, the plates were read visually after 24 hours incubation. Cultures containing 5 μL DMSO were used as growth controls. In addition, two controls containing a sub-inhibitory or a inhibitory antibiotic concentration for the tested strain were performed. The antibiotics used were ampicillin (0.5 and 32 μg/mL) for E. coli, kanamycin (0.5 and 16 μg/mL) for S. aureus ATCC 25923, ciprofloxacin (4 and 64 mg/L) for S. aureus 1199B, ciprofloxacin (0.5 and 2 mg/L) for S. aureus K2378. All experiments were performed in duplicate.
(§4) Efflux pump inhibition assays were then performed against resistant Staphylococcus aureus strains SA 1199B and SA K2378 for bis-indolic derivatives. […] The minimal inhibitory concentration (MIC) of the bis-indolic compound allowing a complete inhibition of the bacterial growth in the presence of ciprofloxacin was determined.

[21] = tested on: Staphylococcus aureus K2378 (overexpresses the efflux pump NorA from a multicopy plasmid); experiment: as above; type: cell-based; conditions: S. aureus K2378; in the presence of ciprofloxacin 0.5 mg/L
Protocol: as §2, §3, §4

[22] = tested on: HCT116 (human colon tumor); experiment: In vitro cytotoxicity; type: cell-based; conditions: read-out: % of cellular growth inhibition; for inhibition at 10 µM: HCT-116, 10^−5 M; for inhibition at 1 µM: HCT-116, 10^−6 M
Protocol: (§5) In vitro cytotoxicity was assayed on three cell lines—KB (human mouth carcinoma), MCR5 (human lung fibroblast) and HCT116 (human colon tumor). Results are presented in table IV as % of cellular growth inhibition in presence of 10^−5 M and 10^−6 M of the tested bis-indolic derivatives.

[23] = tested on: KB (human mouth carcinoma); experiment: In vitro cytotoxicity; type: cell-based; conditions: read-out: % of cellular growth inhibition; for inhibition at 10 µM: 10^−5 M; for inhibition at 1 µM: 10^−6 M
Protocol: as §5

[24] = tested on: MRC5 (human lung fibroblast); experiment: In vitro cytotoxicity; type: cell-based; conditions: read-out: % of cellular growth inhibition; for inhibition at 10 µM: 10^−5 M; for inhibition at 1 µM: 10^−6 M
Protocol: as §5

[25] = tested on: S. aureus ATCC 106414 (VISA); experiment: MIC, microdilution method (9.1); type: cell-based, Staphylococcus aureus; conditions: Staphylococcus aureus, read after 18 h, read-out: MIC
Summary of the method: as §1

[26] = tested on: S. aureus ATCC 33592 (MRSA); experiment: MIC, microdilution method (9.1); type: cell-based, Staphylococcus aureus; conditions: Staphylococcus aureus, read after 18 h, read-out: MIC
Summary of the method: as §1

[27] = tested on: S. aureus ATCC 6538; experiment: MIC, microdilution method (9.1); type: cell-based, Staphylococcus aureus; conditions: Staphylococcus aureus, ATCC6538, read after 18 h, read-out: MIC
Summary of the method: as §1

[28] = tested on: S. aureus ATCC 9144; experiment: MIC, microdilution method (9.1); type: cell-based, Staphylococcus aureus; conditions: Staphylococcus aureus, ATCC9144, read after 18 h, read-out: MIC
Summary of the method: as §1

[29] = tested on: S. aureus CIP 103428; experiment: MIC, microdilution method (9.1); type: cell-based, Staphylococcus aureus; conditions: Staphylococcus aureus, CIP103428, read after 18 h, read-out: MIC
Summary of the method: as §1

[30] = tested on: S. aureus CIP 65.25 (MRSA); experiment: MIC, microdilution method (9.1); type: cell-based, Staphylococcus aureus; conditions: Staphylococcus aureus, read after 18 h, read-out: MIC
Summary of the method: as §1

[31] = tested on: S. aureus CIP 65.6; experiment: MIC, microdilution method (9.1); type: cell-based, Staphylococcus aureus; conditions: Staphylococcus aureus, CIP65, read after 18 h, read-out: MIC
Summary of the method: as §1

[32] = tested on: S. aureus SA-1199B; experiment: MIC, microdilution method (9.1); type: cell-based, Staphylococcus aureus; conditions: Staphylococcus aureus, SA1199B, 18 h
Summary of the method: as §1

[33] = tested on: S. epidermidis CIP 103627; experiment: MIC, microdilution method (9.1); type: cell-based, Staphylococcus epidermidis; conditions: Staphylococcus epidermidis, CIP103627, read after 18 h, read-out: MIC
Summary of the method: as §1

[34] = tested on: S. epidermidis CIP 81.55; experiment: MIC, microdilution method (9.1); type: cell-based, Staphylococcus epidermidis; conditions: Staphylococcus epidermidis, CIP81, read after 18 h, read-out: MIC
Summary of the method: as §1

[35] = tested on: S. aureus; conditions: penicillin M compounds; cited from earlier work
[36] = in the presence of ciprofloxacin 2 mg/L
[37] = in the presence of ciprofloxacin 4 mg/L

## CC(C)(C)OC(=O)NCC(NC(=O)c1c[nH]c2ccccc12)c1c[nH]c2ccccc12 (stereo not drawn) [Compound 3a, tert-Butyl (2-(1H-indol-3-yl)-2-(1H-indole-3-carboxamido)ethyl)carbamate]
[1]
  MIC: > 128 µg/mL
[2]
  MIC: > 128 µg/mL
[3]
  MIC: > 128 µg/mL
[4]
  MIC: > 128 µg/mL
[5]
  MIC: > 128 µg/mL
[6]
  MIC: > 128 µg/mL
[7]
  MIC: > 128 µg/mL
[8]
  MIC: > 128 µg/mL
[9]
  MIC: > 128 µg/mL
[10]
  MIC: > 128 µg/mL
[11]
  MIC: > 128 µg/mL
[12]
  MIC: > 128 µg/mL
[13]
  MIC: > 128 µg/mL
[14]
  MIC: > 128 µg/mL
[15]
  MIC: > 128 µg/mL
[16]
  MIC: > 128 µg/mL
[17]
  MIC: > 128 µg/mL
[18]
  MIC: > 128 µg/mL
[19]
  MIC: > 128 µg/mL
[20]; in the presence of ciprofloxacin 1 mg/L
  MIC, mg/L (Ciprofloxacin concentration, mg/L): 2 (1) mg/L
[20]; [36]
  MIC, mg/L (Ciprofloxacin concentration, mg/L): 0.5 (2) mg/L
[20]; [37]
  MIC, mg/L (Ciprofloxacin concentration, mg/L): 0.25 (4) mg/L
[21]
  MIC, mg/L (Ciprofloxacin concentration, mg/L): 4 (0.5) mg/L
[22]
  inhibition at 10 µM: 22 ± 5%
  inhibition at 1 µM: 11%
[23]
  inhibition at 10 µM: 18 ± 1%
  inhibition at 1 µM: 16%
[24]
  inhibition at 10 µM: 14 ± 1%
  inhibition at 1 µM: 2%

## O=C(NC(C(=O)O)c1c[nH]c2ccc(Br)cc12)c1c[nH]c2ccc(Br)cc12 (stereo not drawn) [Compound 12, 2-(5-Bromo-1H-indol-3-yl)-2-(5-bromo-1H-indole-3-carboxamido) acetic acid]
[25]
  MIC: > 32 µg/mL
[1]
  MIC: > 32 µg/mL
[2]
  MIC: > 32 µg/mL
[26]
  MIC: > 32 µg/mL
[27]
  MIC: > 32 µg/mL
[28]
  MIC: > 32 µg/mL
[29]
  MIC: > 32 µg/mL
[30]
  MIC: > 32 µg/mL
[31]
  MIC: > 32 µg/mL
[32]
  MIC: > 32 µg/mL
[3]
  MIC: > 32 µg/mL
[33]
  MIC: > 32 µg/mL
[34]
  MIC: > 32 µg/mL
[20]; [36]
  MIC, mg/L (Ciprofloxacin concentration, mg/L): 32 (2) mg/L
[20]; [37]
  MIC, mg/L (Ciprofloxacin concentration, mg/L): 64 (4) mg/L
[21]
  MIC, mg/L (Ciprofloxacin concentration, mg/L): 64 (0.5) mg/L
[22]
  inhibition at 10 µM: 0%
  inhibition at 1 µM: 0%
[23]
  inhibition at 10 µM: 0%
  inhibition at 1 µM: 0%
[24]
  inhibition at 10 µM: 3 ± 3%
  inhibition at 1 µM: 3%
other
  melting point: 195 °C

## COc1cccc(OC)c1C(=O)N[C@@H]1C(=O)N2[C@@H]1SC(C)(C)[C@@H]2C(=O)O [methicillin]
[35]
  mutation frequency: ~10^−9

## Cc1onc(-c2ccccc2)c1C(=O)N[C@@H]1C(=O)N2[C@@H]1SC(C)(C)[C@@H]2C(=O)O [oxacillin]
[35]
  mutation frequency: ~10^−9
